Results on 28 compounds are retold here after patent US8729089B2 (Gilead Sciences, Inc., priority 2006, dated 2014).

Series [1] in a line: CC50 assay (CellTiter-Glo) in Huh-7 HCV replicon cells. The class given is cell-based, human. The note with it: human, 3 days incubation, CellTiter-Glo readout. The essentials: (§1)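 Cytotoxicity (CC50) measured by CellTiter-Glo and antiviral activity (EC50) by luciferase signal from lysed cells, both by luminescence. Replicon-bearing Huh-7 cells, 6000 per well, incubated 3 days at 37 °C with threefold-diluted compound (0.5% DMSO for DMSO-dissolved compounds).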
A general note: In ATP-based viability assays light output follows the ATP content of the culture.

For series [2], the system named is HCV replicon in human hepatoma Huh-7 cell line. The series can be described thus: Anti-HCV replicon assay (EC50, luciferase). The class given is cell-based. The note with it: Hepatitis C virus, Huh-7, 72 h. The gist of the method:
as §1
(In general: A replicon is a self-replicating genome or part of one, used to study replication in cells.)

Regarding `CCOc1nc(NCc2ccc(F)cc2F)nc2ccc(-c3ccc(F)cc3)nc12` [Example 108, (2,4-Difluoro-benzyl)-{4-ethoxy-6-(4-fluoro-phenyl)-pyrido[3,2-d]pyrimidin-2-yl]-amine], the CC50 (as a rule, the concentration giving 50% cytotoxicity) at 3 days in series [1] lay within 5 to 25 µM. For the same compound, the EC50 (as a rule, the concentration giving half of the maximal effect) in series [2] is less than 0.1 µM.
The corresponding values for `CCOc1nc(NCc2ccc(Cl)c(F)c2)nc2ccc(-c3ccc(F)cc3)nc12` [Example 40, (4-Chloro-3-fluoro-benzyl)-[4-ethoxy-6-(4-fluoro-phenyl)-pyrido[3,2-d]pyrimidin-2-yl]-amine] are 5 to 25 µM and less than 0.1 µM.
The corresponding values for `CCOc1nc(NCc2ccc(F)cc2)nc2ccc(-c3ccc(NC(=O)CO)cc3)nc12` [Example 69, N-{4-[4-Ethoxy-2-(4-fluoro-benzylamino)-pyrido[3,2-d]pyrimidin-6-yl]-phenyl}-2-hydroxy-acetamide] are more than 25 µM and less than 0.1 µM.
On the same counts, the results for `CCOc1nc(NCc2ccc(S(N)(=O)=O)cc2)nc2ccc(-c3ccc(F)c(S(N)(=O)=O)c3)nc12` [Example 145, 5-[4-Ethoxy-2-(4-sulfamoyl-benzylamino)-pyrido[3,2-d]pyrimidin-6-yl]-2-fluoro-benzenesulfonamide] are 5 to 25 µM and less than 0.1 µM.
`Fc1ccc(-c2ccc3nc(NCc4cccnc4)nc(NCC(F)(F)F)c3n2)cc1` [Example 244, 6-(4-Fluoro-phenyl)-N2-pyridin-3-ylmethyl-N4-(2,2,2-trifluoro-ethyl)-pyrido[3,2-d]pyrimidine-2,4-diamine] registered a CC50 at 3 days in series [1] of 5 to 25 µM. This compound came in with a 50% effective concentration (EC50) in series [2] of less than 0.1 µM.
The corresponding values for `CCOc1nc(NCc2ccc(F)cc2Cl)nc2ccc(-c3ccc(F)cc3)nc12` [Example 43, (2-Chloro-4-fluoro-benzyl)-[4-ethoxy-6-(4-fluoro-phenyl)-pyrido[3,2-d]pyrimidin-2-yl]-amine] are more than 25 µM and less than 0.1 µM.
On the same counts, the results for `CCOc1nc(NCc2ccc(F)cc2)nc2ccc(-c3ccc(S(N)(=O)=O)cc3)nc12` [Example 83, 4-[4-Ethoxy-2-(4-fluoro-benzylamino)-pyrido[3,2-d]pyrimidin-6-yl]-benzenesulfonamide] are 5 to 25 µM and less than 0.1 µM.
The corresponding values for `CCOc1nc(NCc2ccc(F)cc2)nc2ccc(-c3ccc(NC(=O)N4CCOCC4)cc3)nc12` [Example 72, Morpholine-4-carboxylic acid {4-[4-ethoxy-2-(4-fluoro-benzylamino)-pyrido[3,2-d]pyrimidin-6-yl]-phenyl}-amide] are 5 to 25 µM and less than 0.1 µM.
In series [1], `CCOc1nc(NCc2c(F)cc(OC)cc2F)nc2ccc(-c3ccc(F)cc3)nc12` [Example 36, (2,6-Difluoro-4-methoxy-benzyl)-[4-ethoxy-6-(4-fluoro-phenyl)-pyrido[3,2-d]pyrimidin-2-yl]-amine] displayed a CC50 at 3 days of 5 to 25 µM. In series [2], the EC50 was less than 0.1 µM.
The corresponding values for `CCOc1nc(NCc2ccc(F)cc2)nc2ccc(-c3ccc(NC(N)=O)cc3)nc12` [Example 75, {4-[4-Ethoxy-2-(4-fluoro-benzylamino)-pyrido[3,2-d]pyrimidin-6-yl]-phenyl}-urea] are more than 25 µM and less than 0.1 µM.
On the same counts, the results for `NS(=O)(=O)c1ccc(CNc2nc(NCC(F)(F)F)c3nc(-c4ccc(F)c(S(N)(=O)=O)c4)ccc3n2)cc1` [Example 225, 2-Fluoro-5-[2-(4-sulfamoyl-benzylamino)-4-(2,2,2-trifluoro-ethylamino)-pyrido[3,2-d]pyrimidin-6-yl]-benzenesulfonamide] are more than 25 µM and less than 0.1 µM.
For `CCOc1nc(NCc2c(F)cc(Cl)cc2F)nc2ccc(-c3ccc(F)cc3)nc12` [Example 37, (4-Chloro-2,6-difluoro-benzyl)-[4-ethoxy-6-(4-fluoro-phenyl)-pyrido[3,2-d]pyrimidin-2-yl]-amine], the CC50 at 3 days in series [1] lay within 5 to 25 µM. Also, the EC50 in series [2] is less than 0.1 µM.
In series [1], `CCOc1nc(NC2(c3ccc(F)cc3)CC2)nc2ccc(-c3ccc(C(=O)NC(C)(C)CN4CCCC4)cc3)nc12` [Example 96, N-(1,1-Dimethyl-2-pyrrolidin-1-yl-ethyl)-4-{4-ethoxy-2-[1-(4-fluoro-phenyl)-cyclopropylamino]-pyrido[3,2-d]pyrimidin-6-yl}-benzamide] displayed a 50% cytotoxic concentration (CC50) at 3 days of less than 5 µM. This compound displayed an EC50 in series [2] of less than 0.1 µM.
For the compound `CCOc1nc(NCc2ccc(S(N)(=O)=O)cc2)nc2ccc(-c3ccc(NC(=O)[C@@H](N)[C@@H](C)O)cc3)nc12` [Example 147, 2-Amino-N-{4-[4-ethoxy-2-(4-sulfamoyl-benzylamino)-pyrido[3,2-d]pyrimidin-6-yl]-phenyl}-3-hydroxy-butyramide], in series [1], the cytotoxic concentration (CC50) at 3 days was less than 5 µM. The compound also registered an EC50 in series [2] of less than 0.1 µM.
The corresponding values for `CS(=O)(=O)CCNc1nc(NCc2ccc(S(N)(=O)=O)cc2)nc2ccc(-c3ccc(F)cc3)nc12` [Example 153, 4-{[4-(2-Methanesulfonylethyl)-amino-6-(4-fluorophenyl)-pyrido[3,2-d]pyrimidin-2-ylamino]-methyl}-benzenesulfonamide] are less than 5 µM and less than 0.1 µM.
The corresponding values for `CC(C)N1CCC(Nc2nc(NCc3ccc(F)cc3)nc3ccc(-c4ccc(F)cc4)nc23)CC1` [Example 29, N2-(4-Fluoro-benzyl)-6-(4-fluoro-phenyl)-N4-(1-isopropyl-piperidin-4-yl)-pyrido[3,2-d]pyrimidine-2,4-diamine] are less than 5 µM and less than 0.1 µM.
In turn, `NS(=O)(=O)c1ccc(CNc2nc(NCC(F)(F)F)c3nc(-c4ccc(C(=O)NC5CC5)cc4)ccc3n2)cc1` [Example 158, 4-{[4-(2,2,2-Trifluoroethyl)-amino-6-(4-(N-cyclopropylcarbamoyl)-phenyl)-pyrido[3,2-d]pyrimidin-2-ylamino]-methyl}-benzenesulfonamide] returned a CC50 at 3 days in series [1] of 5 to 25 µM. The same compound displayed a 50% effective concentration (EC50) in series [2] of less than 0.1 µM.
On to `CCOc1nc(NCc2ccc(F)cc2)nc2ccc(-c3ccc(C(=O)NC(C)(C)CN4CCCC4)cc3)nc12` [Example 95, N-(1,1-Dimethyl-2-pyrrolidin-1-yl-ethyl)-4-[4-ethoxy-2-(4-fluoro-benzylamino)-pyrido[3,2-d]pyrimidin-6-yl]-benzamide], for which the CC50 at 3 days in series [1] was less than 5 µM. For the same compound, the EC50 in series [2] is less than 0.1 µM.
On the same counts, the results for `Fc1ccc(CNc2nc(N[C@@H]3CCOC3)c3nc(-c4ccc(F)cc4)ccc3n2)cc1` [Example 298, N2-(4-Fluoro-benzyl)-6-(4-fluoro-phenyl)-N4-(tetrahydro-furan-3-yl)-pyrido[3,2-d]pyrimidine-2,4-diamine] are 5 to 25 µM and less than 0.1 µM.
On the same counts, the results for `N#Cc1cc(-c2ccc3nc(NCc4ccc(S(N)(=O)=O)cc4)nc(NCC(F)(F)F)c3n2)ccn1` [Example 173, 4-{[6-(2-Cyano-pyridin-4-yl)-4-(2,2,2-trifluoro-ethylamino)-pyrido[3,2-d]pyrimidin-2-ylamino]-methyl}-benzenesulfonamide] are more than 25 µM and less than 0.1 µM.
The corresponding values for `CCOc1nc(NCc2ccc(F)cc2)nc2ccc(-c3ccc(C(=O)NCCN(C)C)cc3)nc12` [Example 63, N-(2-Dimethylamino-ethyl)-4-[4-ethoxy-2-(4-fluoro-benzylamino)-pyrido[3,2-d]pyrimidin-6-yl]-benzamide] are less than 5 µM and less than 0.1 µM.
As for `Fc1ccc(-c2ccc3nc(NCc4nnco4)nc(NCC(F)(F)F)c3n2)cc1` [Example 247, 6-(4-Fluoro-phenyl)-N2-[1,3,4]oxadiazol-2-ylmethyl-N4-(2,2,2-trifluoro-ethyl)-pyrido[3,2-d]pyrimidine-2,4-diamine], the cytotoxic concentration (CC50) at 3 days in series [1] is 5 to 25 µM. This compound also returned an EC50 in series [2] of less than 0.1 µM.
On the same counts, the results for `CCOc1nc(N[C@H](C)c2ccccc2)nc2ccc(-c3ccc(F)cc3)nc12` [Example 113, [4-Ethoxy-6-(4-fluoro-phenyl)-pyrido[3,2-d]pyrimidin-2-yl]-(1-phenyl-ethyl)-amine] are more than 25 µM and less than 0.1 µM.
On the same counts, the results for `CCOc1nc(NCc2ccc(F)cc2)nc2ccc(-c3ccc(NC(=O)N4CCCC4)cc3)nc12` [Example 73, Pyrrolidine-1-carboxylic acid {4-[4-ethoxy-2-(4-fluoro-benzylamino)-pyrido[3,2-d]pyrimidin-6-yl]-phenyl}-amide] are 5 to 25 µM and less than 0.1 µM.
In series [1], `CCOc1nc(NCc2ccc(F)cc2)nc2ccc(-c3ccc(CO)o3)nc12` [Example 97, {5-[4-Ethoxy-2-(4-fluoro-benzylamino)-pyrido[3,2-d]pyrimidin-6-yl]-furan-2-yl}-methanol] showed a cytotoxic concentration (CC50) at 3 days of 5 to 25 µM. The compound also returned an EC50 in series [2] of less than 0.1 µM.
`CS(=O)(=O)CCNc1nc(NCc2ccc(S(N)(=O)=O)cc2)nc2ccc(-c3ccc(C(=O)NC4CC4)cc3)nc12` [Example 162, 4-{[4-(2-Methanesulfonylethyl)-amino-6-(4-(N-cyclopropylcarbamoyl)-phenyl)-pyrido[3,2-d]pyrimidin-2-ylamino]-methyl}-benzenesulfonamide]: the CC50 at 3 days in series [1] was more than 25 µM. In series [2], this compound showed an EC50 of 0.1 to 0.25 µM.
The corresponding values for `CC(C)(CN1CCCC1)NC(=O)c1ccc(-c2ccc3nc(NCc4ccc(S(N)(=O)=O)cc4)nc(NCC(F)(F)F)c3n2)cc1` [Example 199, N-(1,1-Dimethyl-2-pyrrolidin-1-yl-ethyl)-4-[2-(4-sulfamoyl-benzylamino)-4-(2,2,2-trifluoro-ethylamino)-pyrido[3,2-d]pyrimidin-6-yl]-benzamide] are less than 5 µM and less than 0.1 µM.
In turn, `NS(=O)(=O)c1ccc(CNc2nc(NCC(F)(F)F)c3nc(-c4cc[nH]c(=O)c4)ccc3n2)cc1` [Example 288, 4-{[6-(2-Oxo-1,2-dihydro-pyridin-4-yl)-4-(2,2,2-trifluoro-ethylamino)-pyrido[3,2-d]pyrimidin-2-ylamino]-methyl}-benzenesulfonamide] showed a CC50 at 3 days in series [1] of more than 25 µM. In addition, the concentration for a half-maximal effect (EC50) in series [2] was less than 0.1 µM.
